Assay results reported in the NIST ThermoML archive (doi:10.1016/j.jct.2019.03.023).
Where “and” joins values, the source holds several entries; their conditions need not be identical. Equal entries are not always repeated.

Assay: molar heat capacity at constant volume
Conditions: Vacuum adiabatic calorimetry

CC(C)O [propan-2-ol]
Fluid (supercritical or subcritical phases)
Conditions	molar heat capacity at constant volume
380.8 K, Mass density=697.69 kg/m3	187.08 J/K/mol
380.91 K, Mass density=697.69 kg/m3	187.8 J/K/mol
381.02 K, Mass density=697.69 kg/m3	186.29 J/K/mol
381.13 K, Mass density=697.69 kg/m3	184.61 J/K/mol
381.24 K, Mass density=697.69 kg/m3	185.39 J/K/mol
381.35 K, Mass density=697.69 kg/m3	184.49 J/K/mol
381.46 K, Mass density=697.69 kg/m3	184.01 J/K/mol
381.57 K, Mass density=697.69 kg/m3	184.67 J/K/mol
381.69 K, Mass density=697.69 kg/m3	184.97 J/K/mol
391.32 K, Mass density=329.2 kg/m3	243.38 J/K/mol
391.53 K, Mass density=329.2 kg/m3	248.85 J/K/mol
391.54 K, Mass density=329.2 kg/m3	243.44 J/K/mol
391.65 K, Mass density=329.2 kg/m3	246.93 J/K/mol
391.76 K, Mass density=329.2 kg/m3	235.69 J/K/mol
391.87 K, Mass density=329.2 kg/m3	241.16 J/K/mol
391.98 K, Mass density=329.2 kg/m3	242.54 J/K/mol
392.09 K, Mass density=329.2 kg/m3	244.11 J/K/mol
392.2 K, Mass density=329.2 kg/m3	243.2 J/K/mol
399.51 K, Mass density=343.1 kg/m3	235.93 J/K/mol
399.72 K, Mass density=343.1 kg/m3	235.93 J/K/mol
399.83 K, Mass density=343.1 kg/m3	239.24 J/K/mol
399.94 K, Mass density=343.1 kg/m3	242.54 J/K/mol
400.04 K, Mass density=343.1 kg/m3	236.05 J/K/mol
400.15 K, Mass density=343.1 kg/m3	239.36 J/K/mol
400.25 K, Mass density=343.1 kg/m3	239.42 J/K/mol
400.36 K, Mass density=343.1 kg/m3	239.42 J/K/mol
400.46 K, Mass density=343.1 kg/m3	236.23 J/K/mol
400.57 K, Mass density=343.1 kg/m3	239.54 J/K/mol
416.55 K, Mass density=329.2 kg/m3	258.83 J/K/mol
416.65 K, Mass density=329.2 kg/m3	260.09 J/K/mol
416.76 K, Mass density=329.2 kg/m3	252.52 J/K/mol
416.86 K, Mass density=329.2 kg/m3	257.99 J/K/mol
416.97 K, Mass density=329.2 kg/m3	255.76 J/K/mol
417.08 K, Mass density=329.2 kg/m3	261.47 J/K/mol
417.18 K, Mass density=329.2 kg/m3	252.94 J/K/mol
417.29 K, Mass density=329.2 kg/m3	253.84 J/K/mol
417.39 K, Mass density=329.2 kg/m3	259.73 J/K/mol
417.5 K, Mass density=329.2 kg/m3	261.17 J/K/mol
442.12 K, Mass density=329.2 kg/m3	262.92 J/K/mol
442.23 K, Mass density=329.2 kg/m3	265.86 J/K/mol
442.33 K, Mass density=329.2 kg/m3	272.53 J/K/mol
442.43 K, Mass density=329.2 kg/m3	265.68 J/K/mol
442.54 K, Mass density=329.2 kg/m3	266.76 J/K/mol
442.64 K, Mass density=329.2 kg/m3	267.6 J/K/mol
442.74 K, Mass density=329.2 kg/m3	270.13 J/K/mol
442.85 K, Mass density=329.2 kg/m3	265.86 J/K/mol
447.55 K, Mass density=581.06 kg/m3	250.9 J/K/mol
447.75 K, Mass density=581.06 kg/m3	250.96 J/K/mol
447.85 K, Mass density=581.06 kg/m3	250.96 J/K/mol
447.95 K, Mass density=581.06 kg/m3	253.06 J/K/mol
448.05 K, Mass density=581.06 kg/m3	255.1 J/K/mol
448.15 K, Mass density=581.06 kg/m3	251.08 J/K/mol
448.25 K, Mass density=581.06 kg/m3	251.08 J/K/mol
448.35 K, Mass density=581.06 kg/m3	253.18 J/K/mol
448.54 K, Mass density=581.06 kg/m3	253.06 J/K/mol
448.64 K, Mass density=581.06 kg/m3	255.16 J/K/mol
448.74 K, Mass density=581.06 kg/m3	253.12 J/K/mol
448.84 K, Mass density=581.06 kg/m3	251.14 J/K/mol
448.94 K, Mass density=581.06 kg/m3	253.18 J/K/mol
449.04 K, Mass density=581.06 kg/m3	253.24 J/K/mol
449.14 K, Mass density=581.06 kg/m3	255.28 J/K/mol
449.24 K, Mass density=581.06 kg/m3	253.3 J/K/mol
449.34 K, Mass density=581.06 kg/m3	253.3 J/K/mol
449.44 K, Mass density=581.06 kg/m3	253.3 J/K/mol
449.63 K, Mass density=581.06 kg/m3	251.56 J/K/mol
449.73 K, Mass density=581.06 kg/m3	253.6 J/K/mol
449.83 K, Mass density=581.06 kg/m3	255.7 J/K/mol
449.93 K, Mass density=581.06 kg/m3	255.7 J/K/mol
450.03 K, Mass density=581.06 kg/m3	251.62 J/K/mol
450.13 K, Mass density=581.06 kg/m3	249.63 J/K/mol
450.23 K, Mass density=581.06 kg/m3	255.82 J/K/mol
450.33 K, Mass density=581.06 kg/m3	253.78 J/K/mol
450.43 K, Mass density=581.06 kg/m3	253.78 J/K/mol
450.52 K, Mass density=581.06 kg/m3	253.84 J/K/mol
450.62 K, Mass density=581.06 kg/m3	253.54 J/K/mol
450.72 K, Mass density=581.06 kg/m3	251.86 J/K/mol
450.92 K, Mass density=581.06 kg/m3	253.72 J/K/mol
451.06 K, Mass density=581.06 kg/m3	251.62 J/K/mol
451.16 K, Mass density=581.06 kg/m3	252.94 J/K/mol
451.26 K, Mass density=581.06 kg/m3	249.63 J/K/mol
451.36 K, Mass density=581.06 kg/m3	249.63 J/K/mol
451.46 K, Mass density=581.06 kg/m3	249.69 J/K/mol
451.56 K, Mass density=581.06 kg/m3	249.69 J/K/mol
451.66 K, Mass density=581.06 kg/m3	251.8 J/K/mol
451.75 K, Mass density=581.06 kg/m3	250.3 J/K/mol
451.81 K, Mass density=581.06 kg/m3	247.95 J/K/mol
451.83 K, Mass density=581.06 kg/m3	250 J/K/mol and 186.78 J/K/mol
451.86 K, Mass density=581.06 kg/m3	181.85 J/K/mol
451.91 K, Mass density=581.06 kg/m3	175.18 J/K/mol
451.95 K, Mass density=581.06 kg/m3	179.26 J/K/mol
452.01 K, Mass density=581.06 kg/m3	174.52 J/K/mol

Conditions	molar heat capacity at constant volume [J/K/mol]
451.83 K, Liquid	186.78
